# Laboratory results from BindingDB's records for doi:10.1124/mol.64.1.143 (Abbott Laboratories, 2003).
# Several values for one entry are separate records, joined by “and”; a condition that tells them apart may be missing. Equal values may be shown once.
# Target: T1, Calcium-activated potassium channel subunit beta (Sus scrofa, UniProt C0KY85)
# T1 sequence (C0KY85 whole entry): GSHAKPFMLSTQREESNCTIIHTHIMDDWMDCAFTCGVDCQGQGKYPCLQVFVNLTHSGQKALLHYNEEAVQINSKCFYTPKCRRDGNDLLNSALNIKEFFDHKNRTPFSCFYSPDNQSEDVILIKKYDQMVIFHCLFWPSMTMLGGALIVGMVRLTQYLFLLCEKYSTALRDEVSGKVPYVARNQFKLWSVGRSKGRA
row,Ki,SMILES
1,4.9 nM,O=C1COCC2=NC3=C([C@H](c4ccc(F)c(I)c4)C12)S(=O)(=O)CC3 (stereo partly drawn) [A-312110]
2,41.3 nM and 16 nM,CCOc1ccccc1N=C(C[N+](=O)[O-])NC(C)C(C)(C)C (stereo not drawn) [CAS_3038059]
3,> 10000 nM,CC1=NS(=O)(=O)c2cc(Cl)ccc2N1 [NSC_3019]
4,251 nM and 104 nM,CC(N/C(=N\C#N)Nc1ccncc1)C(C)(C)C (stereo not drawn) [NSC_4826]
5,20.6 nM and 10.5 nM,CCC(C)(C)NC(=NC#N)Nc1cccnc1 [NSC_43345]
6,542 nM and 157 nM,CC1(C)Oc2ccc(C#N)cc2C(N2CCCC2=O)C1O (stereo not drawn) [NSC_93504]
7,630 nM and 451 nM,C[C@](O)(C(=O)Nc1ccc(C(=O)c2ccccc2)cc1)C(F)(F)F [ZD-6169]
8,2770 nM and 671 nM,N#Cc1cccc(C2C3=C(CCCC3=O)N=C3CCCC(=O)C32)c1 (stereo not drawn) [zm244085]
